These results are taken from US7250433B2, “Tetrazole and oxadiazolone substituted β-amino acid derivatives” (Warner Lambert Company LLC, priority 2003, dated 2007).

Where only a bound is given, the exact number is not on record here.

For `CC(C)CCC[C@@H](C)CCC(CN)c1nnn[nH]1` (stereo partly drawn), the melting point was 185 °C (dec.).
To `NCC(CC1CCCCC1)c1nnn[nH]1` (stereo not drawn) belongs > 250 °C (dec.); to `CC(C)C(C)C(CN)c1nnn[nH]1` (stereo not drawn), > 250 °C (dec.); to `CCC(C(C)C)C(CN)c1nnn[nH]1` (stereo not drawn), 205 °C (dec.).
To `CC(CC1CCCC1)C(CN)c1nnn[nH]1` (stereo not drawn) belongs 194 °C (dec.).
To `CC(CC1CCCCC1)C(CN)c1nnn[nH]1` (stereo not drawn) belongs 216 °C (dec.); to `CC(Cc1cccc(C(F)(F)F)c1)C(CN)c1nnn[nH]1` (stereo not drawn), 163 °C (dec.); to `CC(CCc1ccccc1)C(CN)c1nnn[nH]1` (stereo not drawn), 152 °C (dec.).
For `CC(C)C1CC1(CN)c1nnn[nH]1` (stereo not drawn), the melting point is > 250 °C (dec.).
Consider `CCC(CC)C1CC1(CN)c1nnn[nH]1` (stereo not drawn), for which the melting point was > 250 °C (dec.).
To `NCC1(C(=O)O)CC12CCCC2` (stereo not drawn) belongs 231 to 235 °C (dec.).
Consider `Cl.NCC1(c2noc(=O)[nH]2)CC12CCCC2` (stereo not drawn), for which the melting point lay in the range of 206 to 208 °C.
For the compound `Cl.NCC1(c2noc(=O)[nH]2)CC12CCCCC2` (stereo not drawn), the melting point was 179 to 181 °C (dec.).
Under `CC(C)C1CC1(CN)C(=O)O.Cl` (stereo not drawn) stands 245 to 246 °C; under `CC(C)CC1CC1(CN)C(=O)O.Cl` (stereo not drawn), 254 to 255 °C; under `CC(C)C1CC1(CN)c1noc(=O)[nH]1.Cl` (stereo not drawn), 178 to 179 °C.
Under `CC(C)CC1CC1(CN)c1noc(=O)[nH]1.Cl` (stereo not drawn) stands 181 to 182 °C; under `CC(Cc1ccc(F)cc1)C(CN)c1nnn[nH]1` (stereo not drawn) [Example 26, 4-(4-Fluoro-phenyl)-3-methyl-2-(1H-tetrazol-5-yl)-butylamine], 186 °C (dec.).
